# Where two headings read alike, the source gives them in different places.
# Key:
# [1] = Pharmacokinetics of intravenous docetaxel with oral LC478 in rats; type: in vivo, Sprague–Dawley rats; conditions: for Vd: read-out: Vss
# Method: For the intravenous study, rats were divided into three groups according to LC478 doses (0, 30, and 100 mg/kg LC478, respectively). […] To prevent blood clotting, 0.3 mL of 0.9% NaCl-injectable solution containing heparin (20 U/mL) was flushed into each cannula immediately after each blood sampling. […] At this time, each rat was sacrificed by withdrawing blood via a heart puncture, and then the entire gastrointestinal tract (including its contents and feces) was extracted and transferred into a beaker. […] A 100 μL aliquot of the supernatant was collected from each beaker.
# P-gp = assay: in vitro; conditions: rat, pH 7.4
# Method: To evaluate the effect of LC478 on P-gp mediated efflux activity in rat’s small intestine, transport experiments were conducted following the previously reported method. The incubation medium (pH 7.4) involving […], 5 mM KCl, 1.2 mM CaCl2, 1.2 mM MgCl2, 25 mM NaHCO3, 1.6 mM Na2HPO4, 0.4 mM NaH2PO4, 5 mM D-glucose, and 5 mM D-mannitol was used throughout the transport experiments. […] The small intestine (2 cm from the proximal part of jejunum) was removed, opened along the mesenteric border and rinsed immediately in ice-cold buffer (pH 7.4) under carbogen O2/CO2 (95%/5%) bubbling. The specimens were fixed to 0.61 cm^2 surface area of cells in the Ussing chambers without harming the underlying muscle layer and formed two compartments, mucosal (M) and serosal (S) chambers. […] Cumulative corrections were made for previously removed samples and apparent permeability coefficients (Papp, cm/s) were calculated as follows: Papp = Q/A·c·t, where Q is the total amount of the drug permeated throughout the incubation time, A is the diffusion area of the Ussing chamber, c is the initial drug concentration in the donor compartment, and t is the total time of the experiment. Efflux ratios were calculated from Papp values by: Efflux ratio = secretory Papp/absorptive Papp.
# [2] = Disappearance of docetaxel in rat hepatic microsomes with LC478; type: in vitro ADME; conditions: hepatic microsomes
# Method: (§1) The hepatic and intestinal microsomes were prepared based on a similar reported method.
# (§2) Adding 0.1 M phosphate buffer (pH 7.4) adjusted the total volume as 0.5 mL, and then the components were incubated at 37 °C using a thermomixer at 500 opm. After incubation of 15 and 30 min for the hepatic and intestinal microsomes, respectively, 1 mL of acetonitrile with 5 µg/mL of paclitaxel as an internal standard added to terminate the reaction.
# (§3) The unweighted kinetic data from rat hepatic and intestinal microsomes were fitted using a single-site Michaelis–Menten Equation V = Vmax × [S]/(Km + [S])(4) where [S] is the substrate concentration, Vmax is maximal velocity, and Km is substrate concentration for half-maximal velocity. The CLint was calculated by dividing the Vmax by the Km.
# in vivo = conditions: for Funabs (true unabsorbed fraction) / absorbed fraction in the gastrointestinal tract: 24 h
# Excerpt: Male Sprague–Dawley rats at 6–9 weeks old (weighing 200–260 g) were purchased from Charles River Company Korea (Orient, Seoul, Korea). […] All rats were maintained in the same conditions as a reported method.
# For the oral study, after overnight fasting with free access to water, rats were divided into three subgroups according to the doses of LC478 administered, which were the same as in the intravenous study. […] Other procedures were followed to the intravenous study.
# Based on the standard methods, we calculated the following pharmacokinetic parameters using non-compartmental analysis (WinNonlin®; Professional Edition version 2.1; Pharsight, Mountain View, CA, USA): The total area under the plasma concentration–time curve from time zero to last blood sampling time (AUClast) or time infinity (AUCinf) by log-linear trapezoidal extrapolation method, terminal half-life, time-averaged total body, renal, and non-renal clearances (CL, CLR, and CLNR, respectively), mean residence time (MRT), apparent volume of distribution at a steady state (Vss), apparent oral clearance (CL/F), and apparent volume of distribution during elimination (Vz/F). We directly read the peak plasma concentration (Cmax) and time to reach Cmax (Tmax) from the experimental data.
# The absorbed fraction of oral dose (Fabs), absolute bioavailability (F), and relative bioavailability (Frel) were calculated by the following equations. (1) F (%)=AUCinf, p.o/AUCinf, i.v×100 (2) Frel (%)=AUCinf with LC478/AUCinf without LC478×100 (3) GI24 h, p.o/100=(1−Fabs)+(F/100×GI24 h, i.v./100)
# [3] = cited from earlier work
# [4] = Disappearance of docetaxel in rat intestinal microsomes with LC478; type: in vitro ADME; conditions: intestinal microsomes
# Method: as §1, §2, §3
# [5] = male, Sprague-Dawley, rat, plasma, iv, 20 mg/kg, rats, docetaxel 20 mg/kg intravenous, with 0 mg/kg LC478
# [6] = male, Sprague-Dawley, rat, plasma, iv, 20 mg/kg, rats, docetaxel 20 mg/kg intravenous, with 30 mg/kg oral LC478
# [7] = male, Sprague-Dawley, rat, plasma, iv, 20 mg/kg, rats, docetaxel 20 mg/kg intravenous, with 100 mg/kg oral LC478
# [8] = rats, docetaxel 20 mg/kg intravenous, with 0 mg/kg LC478
# [9] = rats, docetaxel 20 mg/kg intravenous, with 30 mg/kg oral LC478
# [10] = rats, docetaxel 20 mg/kg intravenous, with 100 mg/kg oral LC478
# [11] = male, Sprague-Dawley, rat, in vivo, po, 20 mg/kg
# [12] = male, Sprague-Dawley, rat, in vivo, po, 30 mg/kg
# [13] = male, Sprague-Dawley, rat, in vivo, po, 100 mg/kg
compound,measurement,setting,value
CC(=O)O[C@@]12CO[C@@H]1C[C@H](O)[C@@]1(C)C(=O)[C@H](O)C3=C(C)[C@@H](OC(=O)[C@H](O)[C@@H](NC(=O)OC(C)(C)C)c4ccccc4)C[C@@](O)([C@@H](OC(=O)c4ccccc4)[C@H]21)C3(C)C [docetaxel],Ae0–24 h,[1]; bound over all LC478 groups,less than 1.56 % of dose
same,contribution of CLR to CL,[1]; bound over all LC478 groups,less than 1.56%
same,Ae0–24 h smaller by,"[1]; intravenous docetaxel, 100 mg/kg LC478 vs 0 mg/kg LC478",31.1%
same,Ae0–24 h smaller by,"[1]; intravenous docetaxel, 100 mg/kg LC478 vs 30 mg/kg LC478",37.2%
same,CLR slower by,"[1]; intravenous docetaxel, 100 mg/kg LC478 vs without LC478",40%
same,GI24 h,"[1]; intravenous docetaxel, bound over all LC478 groups",less than 1.76 % of the intravenous dose
same,AUC(0-inf),[1]; [5],4420 ng·h/mL
same,AUC(0-t),[1]; [5],4220 ng·h/mL
same,CL renal,[1]; [5],1.13 ± 0.431 mL/min/kg
same,MRT,[1]; [5],57.9 min
same,clearance,[1]; [5],78.4 ± 13.1 mL/min/kg
same,Vd,[1]; [5],4.57 ± 1.03 L/kg
same,AUC(0-inf),[1]; [6],5050 ng·h/mL
same,AUC(0-t),[1]; [6],4830 ng·h/mL
same,CL renal,[1]; [6],1.06 ± 0.235 mL/min/kg
same,MRT,[1]; [6],58 min
same,clearance,[1]; [6],67.9 ± 11.7 mL/min/kg
same,half-life,"[1]; male, Sprague-Dawley, rat, plasma, iv, 20 mg/kg, rats, docetaxel 20 mg/kg intravenous, with 30 mg/kg oral LC478, read-out: Terminal half-life",144 ± 37.6 min
same,Vd,[1]; [6],4.02 ± 1.36 L/kg
same,AUC(0-inf),[1]; [7],4580 ng·h/mL
same,AUC(0-t),[1]; [7],4470 ng·h/mL
same,CL renal,[1]; [7],0.678 ± 0.253 mL/min/kg
same,MRT,[1]; [7],67.1 min
same,clearance,[1]; [7],70.4 ± 9.1 mL/min/kg
same,Vd,[1]; [7],4.91 ± 1.44 L/kg
same,Ae0–24 h,[1]; [8],1.42 ± 0.418 % of dose
same,CLNR,[1]; [8],77.2 ± 12.8 mL/min/kg
same,GI24 h,[1]; [8],0.881 ± 0.411 % of dose
same,Ae0–24 h,[1]; [9],1.56 ± 0.129 % of dose
same,CLNR,[1]; [9],66.8 ± 11.4 mL/min/kg
same,Frel,[1]; [9],114%
same,GI24 h,[1]; [9],1.01 ± 0.731 % of dose
same,Ae0–24 h,[1]; [10],0.979 ± 0.365 % of dose
same,CLNR,[1]; [10],69.7 ± 9.13 mL/min/kg
same,Frel,[1]; [10],104%
same,GI24 h,[1]; [10],1.76 ± 0.958 % of dose
same,"Papp B→A at 3 h, 1 µM",P-gp,1.08 ± 0.115 ×10⁻⁶ cm/s
same,Vmax for disappearance of docetaxel,[2]; 5 µM LC478,0.438 ± 0.0578 nmol/min/mg protein
same,Vmax for disappearance of docetaxel,[2]; 10 µM LC478,0.427 ± 0.0411 nmol/min/mg protein
same,"CLR,fu (CLR considering the free fraction in plasma)","in vivo; male, Sprague-Dawley, rat, in vivo",5.04 mL/min/kg
same,"CLR,fu (CLR considering the free fraction in plasma)","in vivo; male, Sprague-Dawley, rat, in vivo, 30 mg/kg",5.15 mL/min/kg
same,"CLR,fu (CLR considering the free fraction in plasma)","in vivo; male, Sprague-Dawley, rat, in vivo, 100 mg/kg",2.55 mL/min/kg
same,CLR,in vivo; [11],3.43 ± 1.15 mL/min/kg
same,Tmax,in vivo; [11],15 min
same,AUC(0-t),"in vivo; male, Sprague-Dawley, rat, in vivo, po, 20 mg/kg, AUClast",82.8 ng·h/mL
same,CL/F,"in vivo; male, Sprague-Dawley, rat, in vivo, po, 20 mg/kg, CL/F",3040 ± 805 mL/min/kg
same,CL renal,"in vivo; male, Sprague-Dawley, rat, in vivo, po, 20 mg/kg, CLR",3.5 ± 1.1 mL/min/kg
same,Vd/F,"in vivo; male, Sprague-Dawley, rat, in vivo, po, 20 mg/kg, Vz/F",670 ± 170 L/kg
same,Funabs (true unabsorbed fraction),in vivo; [12],36.5%
same,absorbed fraction in the gastrointestinal tract,in vivo; [12],0.635
same,F increased by,in vivo; [13],102%
same,Frel increased by,in vivo; [13],109%
same,Funabs (true unabsorbed fraction),in vivo; [13],20.0%
same,absorbed fraction in the gastrointestinal tract,in vivo; [13],0.801
same,Tmax,"in vivo; rats, docetaxel 20 mg/kg oral, with 30 mg/kg oral LC478",30 (15−30) min
same,oral bioavailability,[3],less than 5 % of the oral dose
same,Vmax for disappearance of docetaxel,[4]; 0 µM LC478,0.109 ± 0.0502 nmol/min/0.3 mg protein
same,Vmax for disappearance of docetaxel,[4]; 1 µM LC478,0.133 ± 0.0343 nmol/min/0.3 mg protein
same,Vmax for disappearance of docetaxel,[4]; 5 µM LC478,0.133 ± 0.0737 nmol/min/0.3 mg protein
same,Vmax for disappearance of docetaxel,[4]; 10 µM LC478,0.105 ± 0.0355 nmol/min/0.3 mg protein

# From publication PMC6471177 (Pharmaceutics, 2019)
